Where no end group is shown, it is not given here.
Key:
CD16A = experiment: Spot phage ELISA, CD16A; type: binding, human; details: spot phage ELISA signal-to-noise on CD16A
PCSK9 = type: binding, human; details: spot phage ELISA signal-to-noise on PCSK9

Sequence	S/N (CD16A)	S/N (PCSK9)
GCDAILWTCKQDSDCLAGCVCSEEDLCG (disulfide (positions not given here)) [CD16A EETI-II 7]	18.7	
GCDAKLQQCKQDSDCLAGCVCEEAVICG (disulfide (positions not given here)) [CD16A EETI-II 2]	22.9	
GCDDILRACKQDSDCLAGCVCEEETLCG (disulfide (positions not given here)) [CD16A EETI-II 6]	19.9	
GCDDILRACKQDSDCLAGCVCEEETLCG (disulfide (positions not given here)) [CD16A EETI-II 9]	17.8	
GCDDPWGGEMCKQDSDCLAGCVCGPNGFCG (disulfide (positions not given here)) [CD16A EETI-II 16]	23.6	
GCDDPWGMAMPCKQDSDCLAGCVCGPNGFCG (disulfide (positions not given here)) [CD16A EETI-II 17]	23.4	
GCDEILHKCKQDSDCLAGCVCDEQQLCG (disulfide (positions not given here)) [CD16A EETI-II 10]	17.2	
GCDEMLYRCKQDSDCLAGCVCQEQDVCG (disulfide (positions not given here)) [CD16A EETI-II 5]	20.0	
GCDMPSWDNVWPCKQDSDCLAGCVCGPNGFC (disulfide (positions not given here)) [CD16A EETI-II 28]	19.8	
GCDSLLQRCKQDSDCLAGCVCTEEHLCG (disulfide (positions not given here)) [CD16A EETI-II 11]	16.8	
GCDWLEVECKQDSDCLAGCVCLISPYCG (disulfide (positions not given here)) [CD16A EETI-II 39]	16.3	
GCDYKLWRCKQDSDCLAGCVCEESQVCG (disulfide (positions not given here)) [CD16A EETI-II 3]	21.6	
GCDYKLWRCKQDSDCLAGCVCEESQVCG (disulfide (positions not given here)) [CD16A EETI-II 8]	18.2	
GCEWMAIPCKQDSDCLAGCVCWESPYCG (disulfide (positions not given here)) [CD16A EETI-II 40]	20.1	
GCGQAAVPCKQDSDCLAGCVCDPWGWCD (disulfide (positions not given here)) [CD16A EETI-II 29]	23.7	
GCGSHFAPWFGCKQDSDCLSWLCLYAADGLW (disulfide (positions not given here)) [PCSK9 EET I-II 5]		18.1
GCGSKNGMNMCKQDSDCLAGCVCDPWGQCD (disulfide (positions not given here)) [CD16A EETI-II 31]	15.5	
GCGWWYRQWFCKQDSDCLAGCVCLETPECG (disulfide (positions not given here)) [PCSK9 EET I-II 16]		15.7
GCGYWFIQWFCKQDSDCLAGCVCGPNGFCG (disulfide (positions not given here)) [PCSK9 EET I-II 1]		21.8
GCGYWFKMWFCKQDSDCLAGCVCYPGASCG (disulfide (positions not given here)) [PCSK9 EET I-II 8]		9.7
GCGYWFKMWFCKQDSDCLAGCVCYPGASCG (disulfide (positions not given here)) [PCSK9 EET I-II 12]		15.5

Sequence	S/N (CD16A)	S/N (PCSK9)
GCGYWFYEWFCKQDSDCLAGCVCDPNGFCG (disulfide (positions not given here)) [PCSK9 EET I-II 20]		9.0
GCGYWWKHWFCKQDSDCLAGCVCGPNGFCG (disulfide (positions not given here)) [PCSK9 EET I-II 10]		12.1
GCGYWWKQWFCKQDSDCLAGCVCGPNGFCG (disulfide (positions not given here)) [PCSK9 EET I-II 17]		17.6
GCGYWWRQWFCKQGSDCLAGCVCGPNGFCG (disulfide (positions not given here)) [PCSK9 EET I-II 7]		20.9
GCGYWWSTWFCKQDSDCLAGCVCGPNGFCG (disulfide (positions not given here)) [PCSK9 EET I-II 4]		15.0
GCGYWWVQWFCKQDSDCLAGCVCGPNGFCD (disulfide (positions not given here)) [PCSK9 EET I-II 11]		19.1
GCGYWWVQWFCKQDSDCLAGCVCGPNGFCD (disulfide (positions not given here)) [PCSK9 EET I-II 18]		20.1
GCIATVDHCKQDSDCLAGCVCEPFHVCG (disulfide (positions not given here)) [CD16A EETI-II 4]	20.2	
GCIETIDHCKQDSDCLAGCVCQPMRRCG (disulfide (positions not given here)) [CD16A EETI-II 13]	20.1	
GCMDTPWKGACKQDSDCLAGCVCGPNGFCG (disulfide (positions not given here)) [CD16A EETI-II 19]	18.2	
GCPRILMRCKQDPDCLAGCVCDEEQLCG (disulfide (positions not given here)) [CD16A EETI-II 1]	25.4	
GCPRILMRCKQDSDCLAGYVCDPWGVCD (disulfide (positions not given here)) [CD16A EETI-II 30]	23.2	
GCPWWWVVSCKQDSDCLAGCVCYLQENCG (disulfide (positions not given here)) [CD16A EETI-II 14]	17.8	
GCPWWWVVSCKQDSDCLAGCVCYLQENCG (disulfide (positions not given here)) [CD16A EETI-II 43]	16.5	
GCQDPWGEAMQCKQDSDCLAGCVCGPNGFCG (disulfide (positions not given here)) [CD16A EETI-II 15]	25.7	
GCQFMKTECKQDSDCLAGCVCYESPWCG (disulfide (positions not given here)) [CD16A EETI-II 22]	19.0	
GCQVDPWGHQMDCKQDSDCLAGCVCGPNGFC (disulfide (positions not given here)) [CD16A EETI-II 32]	22.9	
GCQWAQLSWDHCKQDSDCLAGCVCWQSPYCG (disulfide (positions not given here)) [CD16A EETI-II 35]	16.7	
GCQWDPWGVQMNCKQDSDCLAGCVCGPNGFC (disulfide (positions not given here)) [CD16A EETI-II 34]	19.6	
GCQWHEMTCKQDSDCLAGCVCWESPWCG (disulfide (positions not given here)) [CD16A EETI-II 36]	15.9	
GCQWIQQPCKQDSDCLAGCVCHESPWCG (disulfide (positions not given here)) [CD16A EETI-II 38]	17.4	

Sequence	S/N (CD16A)	S/N (PCSK9)
GCQWIQVNCKQDSDCLAGCVCWVSPYCG (disulfide (positions not given here)) [CD16A EETI-II 37]	5.8	
GCQWQVEECKQDSDCLAGCVCWHSPYCG (disulfide (positions not given here)) [CD16A EETI-II 41]	18.8	
GCQWVQMTCKQDSDCLAGCVCWHSPWCG (disulfide (positions not given here)) [CD16A EETI-II 42]	17.3	
GCQYIETECKQDSDCLAGCVCWVSPWCG (disulfide (positions not given here)) [CD16A EETI-II 44]	20.5	
GCRGIDWWPCKQDSDCLTGCVCGPNGFCG (disulfide (positions not given here)) [CD16A EETI-II 24]	11.1	
GCSGNAMNCKQDSDCLAGCVCDPWGKCD (disulfide (positions not given here)) [CD16A EETI-II 25]	19.7	
GCVETYVDCKQDSDCLAGCVCEPVQYCG (disulfide (positions not given here)) [CD16A EETI-II 12]	18.5	
GCWDPWGPMSCKQDSDCLAGCVCGPNGFCG (disulfide (positions not given here)) [CD16A EETI-II 18]	12.9	
GCWGFPFPMDCKQDSDCLAGCVCFLWDKCG (disulfide (positions not given here)) [CD16A EETI-II 23]	19.5	
GCWGPWGPEHCKQDSDCLAGCVCGPNGFCG (disulfide (positions not given here)) [CD16A EETI-II 26]	18.3	
GPTQSEGGQCGGIGYSGPTVCASGTTCQVLGPMWSFCLPGAS (disulfide (positions not given here)) [CD16A CBD 10]	5.9	
GPTQSEGGQCGGIGYSGPTVCASGTTCQVLGPSWSFCLPGAS (disulfide (positions not given here)) [CD16A CBD 11]	4.9	
GPTQSEGGSCGGIGYSGPTVCASGTTCQVLGPYISLCLPGAS (disulfide (positions not given here)) [CD16A CBD 2]	18.5	
GPTQSEGGSCGGIGYSGPTVCASGTTCQVLNPYMSACLPGAS (disulfide (positions not given here)) [CD16A CBD 7]	14.8	
GPTQSHGGSCGGIGYSGPTVCASGTTCQVLNPYLSLCLPGAS (disulfide (positions not given here)) [CD16A CBD 3]	17.5	
GPTQSHYGQCGGLGYFGQWFCSGTTCQMMSPYGSQCLPGAST (disulfide (positions not given here)) [CD16A CBD 9]	8.3	
GPTQSMGGSCGGIGYSGPTVCASGTTCQVLDPYISMCLPGAS (disulfide (positions not given here)) [CD16A CBD 5]	16.5	
GPTQSPEGSCGGIGYSGPTVCASGTTCQVLNPYLSLCLPGAS (disulfide (positions not given here)) [CD16A CBD 8]	14.2	
GPTQSPXGSCGGIGYSGPTVCASGTTCQVLNPYLSQCLPGAS (disulfide) [CD16A CBD 4]	16.8	
GPTQSVWGSCGGIGYSGPTVCASGTTCQVLNPYMSACLPGAS (disulfide (positions not given here)) [CD16A CBD 1]	21.0	
GPTQSWDGQCGGIGYSGPTVCASGTTCQVLSPYLSYCLPGAS (disulfide (positions not given here)) [CD16A CBD 6]	15.7	
